The record followed here is BindingDB's records for doi:10.1016/j.bmcl.2007.10.088 (University of Minnesota Minneapolis, 2008).

Each structure is given as a SMILES string.

The test deals with Bcl-xL (Homo sapiens). The test can be described thus: Inhibition of Bak peptide binding to human recombinant Bcl-Xl.

As usually defined, the Ki is a measure of affinity in units of concentration, obtained from inhibition or displacement. On to `CCOC(=O)[C@H](Cc1ccccc1)N1C(=O)/C(=C/c2ccc(OCOc3ccc(/C=C4\SC(=S)N([C@@H](Cc5ccccc5)C(=O)OCC)C4=O)cc3)cc2)SC1=S`, for which the Ki was determined as 58.4 µM.

In the case of `O=C(OCCOC(=O)[C@H](Cc1ccccc1)N1C(=O)/C(=C/c2ccc(Br)cc2)SC1=S)[C@H](Cc1ccccc1)N1C(=O)/C(=C/c2ccc(Br)cc2)SC1=S`, the Ki stood at 134 µM.

On to `O=C(O)[C@H](Cc1ccccc1)N1C(=O)/C(=C/c2ccc(OCCOc3ccc(/C=C4\SC(=S)N([C@@H](Cc5ccccc5)C(=O)O)C4=O)cc3)cc2)SC1=S`, for which the Ki was found to be 0.97 µM.
